According to publication PMC12040169 (PLOS Biology, 2025):

Assay: in vitro
Conditions: human, hela cells, % viability

Compound | viability at 28.5 h, 10 µM
Cn1ccnc1C(NC(=O)c1ccccn1)c1ccc(F)c(F)c1 (stereo not shown) [CBK283783] | 91.6%
CCn1c(=O)n(CC(=O)N(C)C2CCCCC2)c2cccnc21 [CBK283786] | 86.3%
Cc1ccc(C(C)C(=O)N2CCC(O)(c3ccccn3)CC2)cc1 (stereo not shown) [CBK283787] | 86.7%
COC(=O)[C@H]1CN(C(=O)c2cccnc2)C[C@@H]1c1ccc(F)cc1 [CBK283788] | 92.1%
O=C(c1ccccc1-c1ccccc1)N1CCn2cnnc2C1 [CBK283789] | 85.2%
Cn1c(=O)n(CC(=O)N2CCc3ccccc32)c2cccnc21 [CBK283792] | 106%
CC1Cc2ccccc2N1C(=O)Cn1c(=O)n(C)c2ncccc21 (stereo not shown) [CBK283793] | 90.7%
CN1CC=C(/C=C/c2ccc(Sc3ncccn3)o2)CC1 [CBK283797] | 82.3%
COc1ccc2cc(C(=O)N3CCC(c4ccncc4)CC3)[nH]c2c1 [CBK283799] | 86.4%
CC(C)NC(=O)Cn1nc(-c2cc3c(s2)CCC3)oc1=O [CBK283801] | 88.3%
CCN(CC)C(=O)NC(c1ccccc1OC)c1nccn1C (stereo not shown) [CBK283803] | 80.8%
CC1CC(C)CN(C(=O)Cn2ncc3cccn3c2=O)C1 (stereo not shown) [CBK283805] | 81.2%
Cn1ccnc1C(NC(=O)c1cccnc1)c1ccc(F)c(F)c1 (stereo not shown) [CBK283807] | 100%
Cn1ccnc1C(NC(=O)c1ccncc1)c1ccc(F)c(F)c1 (stereo not shown) [CBK283808] | 104%
Cc1ncccc1C(=O)NC(c1ccc(F)c(F)c1)c1nccn1C (stereo not shown) [CBK283809] | 90.8%
CCn1c(=O)n(CC(=O)NCc2cccs2)c2cccnc21 [CBK283811] | 88.3%
O=C(c1cccnc1)C1CCN(C(=O)C2CCCCC2)CC1 [CBK283817] | 90%
Cc1ccc2cc(C)c3nn(CC(=O)NC4CC4)c(=O)n3c2c1C [CBK283822] | 83.8%
CCn1nc2c(C)cc3cc(OC)ccc3n2c1=O [CBK283823] | 74.6%
CCn1c(=O)n(CC(=O)N2CCc3ccccc32)c2cccnc21 [CBK283826] | 89.4%
CC(NC(=O)Cc1cccs1)c1nc2cccnc2n1C(C)C (stereo not shown) [CBK283828] | 81%
CC(NC(=O)Cc1ccccc1F)c1nc2cccnc2n1C(C)C (stereo not shown) [CBK283829] | 90.8%
CC(NC(=O)Cc1cccc(F)c1)c1nc2cccnc2n1C(C)C (stereo not shown) [CBK283831] | 98.5%
COc1ccccc1C(NC(=O)N(C(C)C)C(C)C)c1nccn1C (stereo not shown) [CBK283834] | 81.9%

Compound | viability at 28.5 h, 10 µM
O=C(NCCn1nc(-c2cccs2)ccc1=O)c1ccccc1F [CBK283835] | 86.1%
O=C(NCCn1nc(-c2cccs2)ccc1=O)C1CCCCC1 [CBK283837] | 90.7%
O=C(NCCn1nc(-c2cccs2)ccc1=O)c1ccco1 [CBK283838] | 90.1%
O=C(CC1CCCC1)NCCn1nc(-c2cccs2)ccc1=O [CBK283841] | 91.8%
O=C(Cc1ccsc1)NCCn1nc(-c2cccs2)ccc1=O [CBK283842] | 96.5%
CCn1c(=O)n(CC(=O)N2CC(C)CC(C)C2)c2cccnc21 (stereo not shown) [CBK283845] | 95.3%
OC1(C2CNc3ccccc3C2)CCNCC1 (stereo not shown) [CBK283847] | 110%
Cc1nn(Cc2cccnc2)c(=O)n2cccc12 [CBK283848] | 105%
CC(C)N(C(=O)N1CCC(c2cccnc2)CC1)C(C)C [CBK283850] | 97.6%
CO[C@H]1CC[C@H](C(=O)NC(c2ccccc2)c2nccn2C)CC1 (stereo partly shown) [CBK283852] | 93.8%
CC(C)n1c(=O)n(C(=O)c2ccco2)c2cccnc21 [CBK283856] | 102%
CN1CC=C(/C=C/C2=Cc3ccccc3OC2)CC1 [CBK283857] | 89.1%
Cc1cc(/C=C/C2=CCN(C)CC2)c(C)n1C1CC1 [CBK283858] | 85.9%
COc1ccc(/C=C/C2=CCN(C)CC2)cc1Cn1cccn1 [CBK283859] | 90.8%
CC(C(=O)NCCn1nc(-c2ccco2)ccc1=O)c1ccccc1 (stereo not shown) [CBK283861] | 93.6%
CC(C)C(=O)NCCn1nc(-c2ccco2)ccc1=O [CBK283863] | 97%
O=C(CN1C(=O)N2CCN=C2c2ccccc21)N1CCCCC1 [CBK283865] | 91.1%
O=C(O)Cc1cc2c(n1Cc1ccc(F)cc1)CCCC2=O [CBK283866] | 93.8%
O=c1n(Cc2ccccn2)c2cccnc2n1Cc1cccs1 [CBK283867] | 90.2%
CCn1cc(C(=O)N2CCCCC2c2nc3cc(C)ccc3[nH]2)cn1 (stereo not shown) [CBK283869] | 84.6%
Cc1ccc2c(c1)cc(C)c1nn(CC(=O)N3CCCCC3)c(=O)n12 [CBK283870] | 81.6%
Cc1ccc2c(c1)cc(C)c1nn(CC(=O)NC3CC3)c(=O)n12 [CBK283873] | 99.2%
Cc1cc(C)c2c(c1)cc(C)c1nn(CC(=O)N3CCCC3)c(=O)n12 [CBK283876] | 85.5%
Cc1cc2ccccc2n2c(=O)n(CC(=O)N3CCCCC3)nc12 [CBK283878] | 85.8%

Compound | viability at 28.5 h, 10 µM
CCN(CC)C(=O)Cn1nc2c(C)cc3ccccc3n2c1=O [CBK283879] | 84.1%
Cc1cc2ccccc2n2c(=O)n(CC(=O)N3CCC(C)CC3)nc12 [CBK283881] | 92.7%
Cc1cc2ccccc2n2c(=O)n(CC(=O)N3CCCCC3C)nc12 (stereo not shown) [CBK283882] | 87.1%
Cc1cc2ccccc2n2c(=O)n(CC(=O)N3CCCCCC3)nc12 [CBK283883] | 82.3%
Cc1cc2ccccc2n2c(=O)n(CC(=O)N(C(C)C)C(C)C)nc12 [CBK283885] | 87.1%
COCCn1c(=O)n(Cc2ccc(F)cc2)c2cccnc21 [CBK283886] | 81%
O=C(NCCCn1ccnc1)c1ncoc1-c1ccccc1 [CBK283887] | 99%
O=C(NC1CN2CCC1CC2)c1ncoc1-c1ccccc1 (stereo not shown) [CBK283888] | 104%
CCn1c(=O)n(CC(=O)NCc2ccccc2F)c2cccnc21 [CBK283890] | 86.8%
CCn1c(=O)n(CC(=O)NCc2cccc(F)c2)c2cccnc21 [CBK283891] | 86.4%
O=C(c1cc(F)cc(F)c1)N1CCC(c2cccnc2)CC1 [CBK283892] | 87.5%
O=C(Cn1c(=O)n(Cc2cccs2)c2ncccc21)N1CCCC1 [CBK283894] | 83.6%
CCn1c(=O)n(CC(=O)N2CCC(C)CC2)c2cccnc21 [CBK283895] | 95.9%
CCn1c(=O)n(CC(=O)N2CCCCC2C)c2cccnc21 (stereo not shown) [CBK283896] | 103%
CCn1c(=O)n(CC(=O)Nc2ccccc2F)c2cccnc21 [CBK283897] | 102%
O=C(Cn1c(=O)n(Cc2cccs2)c2ncccc21)NC1CC1 [CBK283898] | 90.6%
O=C(Cn1c(=O)n(Cc2cccs2)c2ncccc21)NCC1CC1 [CBK283899] | 89.3%
CC(C)NC(=O)Cn1c(=O)n(Cc2cccs2)c2ncccc21 [CBK283900] | 83.6%
O=c1n(Cc2cccnc2)c2cccnc2n1Cc1cccs1 [CBK283903] | 89.7%
CN(C)C(=O)Cn1nc(-c2cc3c(s2)CCCC3)oc1=O [CBK283905] | 98%
O=C1NC2(CCN(C(=O)C(F)(F)F)CC2)Oc2ccccc21 [CBK283906] | 94%
Cn1c(=O)n(CC(=O)NCc2cccs2)c2cccnc21 [CBK283907] | 90.3%
Cn1c(=O)n(CC(=O)NCc2ccccc2F)c2cccnc21 [CBK283909] | 88.1%
O=C(C1=Cc2ccccc2OC1)N1CCn2cc(C(F)(F)F)nc2C1 [CBK283913] | 103%

Compound | viability at 28.5 h, 10 µM
O=C(c1ccc(CO)o1)N1CCn2cc(C(F)(F)F)nc2C1 [CBK283914] | 94%
O=C(c1[nH]nc2c1CCCC2)N1CCn2cc(C(F)(F)F)nc2C1 [CBK283915] | 96.7%
CCn1cc(C(=O)N2CCn3cc(C(F)(F)F)nc3C2)c(C)n1 [CBK283916] | 93.8%
O=C(NCCCn1ccnc1)c1ncoc1-c1ccccc1F [CBK283917] | 96%
Cc1ccc(C2=CCN(CC(=O)N3CCc4ccccc43)CC2)o1 [CBK283918] | 88.1%
CC1CCCCN1C(=O)CN1C(=O)N2CCN=C2c2ccccc21 (stereo not shown) [CBK283921] | 102%
C#CCNC(=O)C1CCN(c2nc3ccccc3n2CC)CC1 [CBK283923] | 89.4%
C=CCn1c(N2CCC(C(=O)NC3CC3)CC2)nc2ccccc21 [CBK283924] | 86.4%
C#CCNC(=O)C1CCN(c2nc3ccccc3n2CC=C)CC1 [CBK283925] | 95.4%
O=C(N1CCn2cnnc2C1)C1(c2ccccc2)CCCC1 [CBK283926] | 90.8%
Cc1cc(C)c2c(c1)cc(C)c1nn(CC(=O)N(C)C)c(=O)n12 [CBK283927] | 96.9%
O=C(NC1CCCc2c1cnn2-c1ccc(F)cc1)c1ccncc1 (stereo not shown) [CBK283929] | 91.6%
CCc1cccc2c(CN3CCc4nc(C)[nH]c(=O)c4C3)c[nH]c12 [CBK283931] | 94.6%
O=C(C1CC1)N1CCCC1c1nc(-c2ccc(F)cc2)n[nH]1 (stereo not shown) [CBK283934] | 102%
O=C(CN1CCCCC1)N1CCCC1c1nc2ccccc2[nH]1 (stereo not shown) [CBK283935] | 104%
O=C(c1ccccc1F)N1CCC(n2cnc3cccnc32)CC1 [CBK283937] | 87.5%
O=C(c1cccs1)N1CCC(n2cnc3cccnc32)CC1 [CBK283938] | 88.4%
O=C(c1ccco1)N1CCC(n2cnc3cccnc32)CC1 [CBK283939] | 91.6%
Cn1c(N2CCC(C(=O)NC3CC3)CC2)nc2ccccc21 [CBK283940] | 97.9%
CCn1c(=O)n(CC(=O)N2CCCCCC2)c2cccnc21 [CBK283942] | 97.1%
CCn1c(=O)n(CC(=O)N(C(C)C)C(C)C)c2cccnc21 [CBK283943] | 100%
CCN(CC)C(=O)CN1C(=O)N2CCN=C2c2ccccc21 [CBK283944] | 94.9%
